# Entries after “also recorded” stand apart in the source; their conditions may differ.
# What was measured:
# Assay type in all cases: cell-based, mouse
# cleaved caspase 3 = assay: Caspase 3 cleavage by immunoblot; details: 48 hr; any pH condition for TCAP-1
# Method: Detection of caspase 3 cleavage was determined at 48 hrs. The samples at each pH and control (see above) were lysed using total protein isolation lysis buffer (described above). An aliquot of 25 μl of each sample was combined with 25 μl of 2×20% sodium dodecyl sulphate (SDS) sample buffer and loaded onto a 4-10% HCL-Tris pre cast polyacrylamide gel (BioRad, Mississauga). The gel was run at 200 v for 35 min and proteins were electrotransfered to a Hybond-C nitrocellulose membrane (Amersham, Baie d'Urfé) for 75 min at 100 v. After transfer, the membrane was washed with 10 ml of PBS with 0.05% Tween 20 (PBST) for 5 min at room temperature (RT) and the membrane was incubated in 10 ml of PBST-milk for one hour at RT followed by 3 times for 5 min washes with 10 ml of PBST. The membrane was then incubated with cleaved caspase 3 primary antibody (Cell Signaling Technology, Beverly) at a titre of 1:500 in 6 ml of PBST-milk with gentle agitation overnight at 4° C. The membranes were washed 3 times for 5 min with 10 ml of PBST followed by membrane incubation with anti-rabbit horseradish peroxidase (HRP)-conjugated secondary antibody (Amersham, Baie d'Urfé) at 1:3000 in 6 ml of PBST-milk with gentle agitation for 1 hr at RT. […]
# caspase 8 = assay: Caspase 8 colorimetric assay
# Method: (§1) Caspase 8 and 3 colorimetric assays were performed on the N38 cells at all pH conditions. The assay was based on the detection of the chromophore pNA after cleavage from the labeled substrate IETD-pNA and DEVD-pNA for caspase 8 and 3, respectively. Comparison of the pNA absorbance from the suspected apoptotic sample was compared to the uninduced neutral pH sample. Caspase 8 and 3 were analysed using the Caspase-3 Colorimetric Activity Assay (Chemicon, Temecula USA) and Caspase-8 Colorimetric Activity Assay (Chemicon, Temecula USA). The cells from each pH treatment described previously at 24 and 48 hrs were removed using a cell scraper and centrifuged at 1500 rpm for 10 minutes. The cells were resuspended in 350 μl of chilled cell lysis buffer containing 500 μl PBS, 5 μl 1% Triton ×100 (Sigma, St. Louis), 25 μl proteinase inhibitor cocktail set III (VWR, Mississauga), 0.5 μM dithiothreitol (DTT) (Sigma, St. Louis) and 2.5 μl phenylmethylsulphonylfluoride (PMSF) diluted in 1 mL of methanol (EM Science, Gibbstown), then incubated on ice for 10 min and centrifuged for 5 minutes at 10,000 rpm. The supernatant, consisting of cytosolic extracts, was transferred to a new tube and a bicinchoninic acid (BCA) protein assay (Pierce, Rockford) was conducted to determine total protein concentration. The absorbance of each sample was measured on a SPECTRAmax Microplate spectrophotometer at 405 nm after an incubation period of 2 hours at 37° C. Changes in caspase 3 activity were determined by comparing the absorbance reading from the induced sample with the level of the uninduced control. Background readings from the buffer were subtracted from the reading of both the induced (pH 6.8, 8.0, 8.4) and uninduced (pH 7.4) samples before calculating changes in caspase 3 activity. The same was done for the detection of caspase 8. As a control, N38 cells were cultured with pH 7.4 DMEM and incubated for 4 days, apoptosis was then induced using 10 μM/ml etoposide and lysed according to the above protocol and used a control for all subsequent caspase 3 detection. All assays were performed with 4 replications.
# PARP = PARP cleavage by immunoblot; details: 48 hour; all pH treatments
# Method: Using the same protocol, changes in PARP expression were determined at 48 hrs. The membrane was incubated with PARP primary antibody (Cell Signaling Technology, Beverly) at a titre of 1:100. The membranes were washed 3 times for 5 min with 10 ml of PBST followed by membrane incubation with anti-rabbit horseradish peroxidase (HRP)-conjugated secondary antibody (Amersham, Baie d'Urfé) at 1:3000 in 6 ml of PBST-milk with gentle agitation for 1 hr at RT. The membranes were then washed 3 times for 5 min with 10 ml of PBST then exposed to Kodak X-OMAT Blue scientific imaging film (Perkin Elmer Canada Inc, Vaudreuil-Dorion) for 30 min. Total optical density of the blots, were quantified using LabWorks 4.0 Image Acquisition and Analysis Software from Ultra-Violet Products Ltd. (UVP).
# caspase 3 = assay: Caspase 3 colorimetric assay
# Method: as §1
# superoxide radical = assay: Superoxide radical measured by conversion of a soluble tetrazolium salt; details: 48 hours
# Method: The presence of the superoxide radical was measured indirectly by the conversion of a soluble tetrazolium salt in cells after 48 hours (FIG. 8A).
# N38 cells = assay: MTT assay (mitochondrial activity); details: for MTT activity (optical density): 48 hrs, 2×10^−7 M
# Method: The effect of TCAP-1 on cell proliferation at each pH was examined by direct counts using a hemocytometer and indirectly by assessing mitochondrial activity using a colorimetric MTT (3-[4,5-dimethylthiazol-2-yl]-2,5-diphenyl tetrazolium bromide) assay on cultured N38 cells. For hemocytometer counts, the cultures were incubated for 24 and 48 hrs. The cells were suspended using 1 ml of 0.25% Trypsin with EDTA (Gibco-Invitrogen, Burlington, Canada), centrifuged at 1600 RPM for 4 min, and resuspended with PBS. The cells in 50 μl aliquots were vortexed and counted on a hemocytometer.
# A (3-4,5-dimethylthiazol-2-yl]-2,5-diphenyl tetrazolium bromide) MTT assay was conducted using the In Vitro Toxicology Assay Kit: MTT based (Sigma, St. Louis). The cells were cultured for the MTT assay at 24 and 48 hours and were incubated at 37° C. in 5% CO2 for 3 hrs in the presence of MTT 200 μl/2 ml medium. The samples were mixed by shaking the plate horizontally for 30 min. The background absorbance of the multi-well plates was determined at 690 nm and subtracted from the 570 nm measurement.
substance,measurement,setting,value
teneurin C-terminus associated peptide [TCAP-1],caspase 3 cleavage product (17/19 kDa) on western blot,cleaved caspase 3,could not be observed
same,"relative level of caspase 8 activity, of the etoposide-induced increase",caspase 8; pH 7.4,about 70%
same,caspase 8 activity vs vehicle,"caspase 8; pH 7.4, P<0.001",increased caspase 8 activity
same,caspase 8 activity vs vehicle,caspase 8; pH 8.0,no significant differences in caspase 8 and 3 activity
same,caspase 8 activity vs vehicle,caspase 8; pH 8.4,no significant differences in caspase 8 and 3 activity
same,"PARP on western blot, vehicle vs TCAP",PARP,no significant differences between vehicle and TCAP treated samples
same,"relative level of caspase 3 activity, of the etoposide-induced increase",caspase 3; pH 6.8,~40%
same,caspase 3 activity vs vehicle,"caspase 3; pH 6.8, P<0.05",increased caspase 3 activity
same,caspase 3 activity vs vehicle,caspase 3; pH 8.0,no significant differences in caspase 8 and 3 activity
same,caspase 3 activity vs vehicle,caspase 3; pH 8.4,no significant differences in caspase 8 and 3 activity
same,decrease in absorbance of the substrate (proportional to superoxide radical activity),"superoxide radical; pH 8.0, p<0.05",40%
same,decrease in absorbance of the substrate (proportional to superoxide radical activity),"superoxide radical; pH 8.4, p<0.01",60%
same,MTT activity,N38 cells; pH 6.8,did not induce a significant effect on MTT activity
same,MTT activity,N38 cells; pH 7.4,did not induce a significant effect on MTT activity
same,MTT activity (optical density),N38 cells; pH 8.0,significant increase in optical density; also recorded: increased the number of viable cells
same,MTT activity (optical density),N38 cells; pH 8.4,significant increase in optical density; also recorded: increased the number of viable cells

# — US20080015147A1, “Method for inhibiting neuronal cell death” (priority 2006, published 2008)
